Measured values reported in publication PMC10093836, “Stabilization of the Dimeric State of SARS-CoV-2 Main Protease by GC376 and Nirmatrelvir” (International Journal of Molecular Sciences, 2023).

Molecular target: SARS-CoV-2 Mpro dimer (Severe acute respiratory syndrome coronavirus 2, UniProt P0DTD1)
Test: SAXS monomer-dimer equilibrium of Mpro in the presence of inhibitors

`CC(C)c1nc(CN(C)C(=O)N[C@H](C(=O)N[C@@H](Cc2ccccc2)C[C@H](O)[C@H](Cc2ccccc2)NC(=O)OCc2cncs2)C(C)C)cs1` [RTV, ritonavir] was tested, and the “ΔCp of Mpro dimer dissociation” value (Mpro alone 1.3 ± 0.4) was 4 ± 1 kJ K^−1mol^−1, the “ΔS^0 of Mpro dimer dissociation” value (T0 = 298.15 K, Mpro alone −30 ± 10) was −70 ± 50 J K^−1mol^−1 and the “ΔH^0 of Mpro dimer dissociation” value (T0 = 298.15 K, derived parameter of the fit, Mpro alone 21 ± 4) was 2.63 ± 1.2 kcal/mol.
